Experimental data from patent US8232299B2, “Phthalimide derivatives that influence cellular vesicular systems, pharmaceutical compositions, and use thereof” (Avidin Kft., priority 2007, dated 2012).

Legend:
[1] = tested on: HepG2 (human hepatocellular carcinoma); experiment: cytotoxic effect on hepatocellular carcinoma cell line, MTS test, 24 hours; assay type: cell-based; settings: 24 hours incubation, already at 20 and 50 μM concentrations
Protocol: (§1) In these experiments HepG2 (human hepatocellular carcinoma) and MCF7 (Human breast adenocarcinoma) cells were used. They were cultured in the following media: For HepG2 Dulbecco's Modified Eagle Medium (D-MEM) (high glucose) (Gibco BRL, Carlsbad, Calif., USA), penicillin (50 IU/ml)-streptomycin ([…]), 10% fetal bovine serum; for MCF7 (Human breast adenocarcinoma) 1:1 mixture of Dulbecco's Modified Eagle Medium (D-MEM) (high glucose) (Gibco BRL, Carlsbad, Calif., USA) and Nutrient Mixture F-12 Ham (Sigma, St. Louis, Mo., USA), penicillin (50 IU/ml)-streptomycin ([…]), 10% fetal bovine serum. Experiments were performed as described in Example 9. with the difference that the incubation time was 24 hours in this case. After the incubation period MTS test (3-(4,5-dimethylthiazol-2-yl)-5-(3-carboxymethoxyphenyl)-2-(4-sulfophenyl)-2H-tetrazolium) (Promega, Madison, Wis., USA) was performed as described above.

[2] = tested on: human melanoma (HT168M1); experiment: spleen/liver animal model, melanoma cells injected into spleen; assay type: in vivo, CB17/scid mice
Protocol: Studies were conducted in the spleen/liver animal model. From 40 adult male CB17/scid mice, born with immunodeficiency, 20 were randomly selected, and they were further divided into two groups. Animals were marked on their ear one by one. 10 of the selected mice were treated with compound 3b (40 mg/kg) for 5 days (PRETREATED/3b), the other 10 animals were treated per os by gavage with appropriate dilution of DMSO serving as the carrier (PRETREATED/control). On the 5th treatment day all the 40 animals were anesthetized by Nembutal (75 mg/kg), and 4×10^4 cells from human melanoma (HT168M1) was injected into their spleens (i.s.). Local bleeding during the implantation was treated with Gelaspon resorbable gelatin sponge. On the 7th day after the implantation the non-treated 20 mice were randomly assigned into two groups and their ear was marked. 10 mice were treated from this time on with compound 3b (40 mg/kg) (POSTTREATED/3b), the other 10 were treated with appropriate dilution of the carrier (DMSO) with similar frequency (POSTTREATED/control) per os once a day five times per week for three weeks. Pretreated groups were not treated after the implantation. Body weight changes were monitored once a week for each animal. 31 days after implantation animals were sacrificed by bleeding in Nembutal (75 mg/kg) anesthesia. […]

[3] = tested on: MCF7 (Human breast adenocarcinoma); experiment: cytotoxic effect on breast carcinoma cell line, MTS test, 24 hours; assay type: cell-based; settings: 24 hours incubation, in the concentration range tested
Protocol: as §1

Compound: CCNc1c(F)c(F)c2c(c1F)C(=O)N(c1c(C(C)C)cccc1C(C)C)C2=O [Compound 3b, 2-(2,6-diisopropylphenyl)-5-(ethylamino)-4,6,7-trifluoroisoindole-1,3-dione]
- effect on HepG2 cells [1]: strong effect
- further metastasis of the adhered cells ([2]; posttreatment 40 mg/kg per os from day 7, five times per week for three weeks, not statistically significant): slightly inhibited
- number of metastases ([2]; pretreatment 40 mg/kg per os for 5 days before implantation, p=0.05, FIG. 7): significantly reduced the number of metastases
- effect on MCF7 cells [3]: weak effect
